{"source": "patent US20080009418A1", "about": "“Selective Inhibitors” (Alchemia LTD., priority 2004, published 2008)", "settings_in_all_cases": "compound at 10 μM", "key": {"[1]": {"molecular_target": "T1, Human Melanocortin (MC4) (Homo sapiens, UniProt P32245)", "T1 construct": "purchased Perkin Elmer Biosignal", "T1 sequence (P32245 whole entry)": "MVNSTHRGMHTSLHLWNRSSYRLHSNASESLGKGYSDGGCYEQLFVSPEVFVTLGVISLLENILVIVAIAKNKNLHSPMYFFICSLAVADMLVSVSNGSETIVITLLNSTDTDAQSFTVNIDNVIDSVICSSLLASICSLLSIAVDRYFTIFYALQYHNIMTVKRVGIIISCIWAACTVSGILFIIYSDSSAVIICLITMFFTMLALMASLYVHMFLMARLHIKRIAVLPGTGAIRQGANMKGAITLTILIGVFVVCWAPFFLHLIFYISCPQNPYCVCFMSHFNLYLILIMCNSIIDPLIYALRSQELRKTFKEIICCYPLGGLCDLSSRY", "experiment": "Radioligand binding, human melanocortin MC4 membranes, FlashPlate, [125I]-NDP-αMSH", "method_in_brief": "(§1)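 Cloned human receptor membranes were coated onto FlashPlate wells and incubated with radioligand and compound (added from a 0.5 mM DMSO daughter plate) for 1 hour at room temperature in the dark. Scintillation counting gave percent inhibition, with DMSO defining total and reference ligand defining non-specific binding.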"}, "[2]": {"molecular_target": "T2, Human melanin-concentrating hormone (MCH1) (Homo sapiens, UniProt Q99705)", "T2 construct": "purchased Perkin Elmer Biosignal", "T2 sequence (Q99705 whole entry)": "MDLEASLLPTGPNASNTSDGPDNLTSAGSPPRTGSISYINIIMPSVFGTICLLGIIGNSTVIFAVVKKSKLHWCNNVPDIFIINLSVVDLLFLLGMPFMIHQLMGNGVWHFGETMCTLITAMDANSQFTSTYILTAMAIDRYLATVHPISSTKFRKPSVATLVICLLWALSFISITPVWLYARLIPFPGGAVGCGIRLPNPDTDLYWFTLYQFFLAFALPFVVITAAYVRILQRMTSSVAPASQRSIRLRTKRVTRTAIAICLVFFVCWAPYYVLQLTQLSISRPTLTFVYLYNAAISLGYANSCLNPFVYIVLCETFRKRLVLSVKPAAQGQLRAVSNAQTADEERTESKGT", "experiment": "Radioligand binding, human melanin-concentrating hormone MCH1 membranes, FlashPlate, [125I]-S36057", "method_in_brief": "as §1"}, "[3]": {"molecular_target": "T3, Human neuropeptide Y (NPY-Y1) (Homo sapiens, UniProt P25929)", "T3 construct": "purchased Perkin Elmer Biosignal", "T3 sequence (P25929 1-384)": "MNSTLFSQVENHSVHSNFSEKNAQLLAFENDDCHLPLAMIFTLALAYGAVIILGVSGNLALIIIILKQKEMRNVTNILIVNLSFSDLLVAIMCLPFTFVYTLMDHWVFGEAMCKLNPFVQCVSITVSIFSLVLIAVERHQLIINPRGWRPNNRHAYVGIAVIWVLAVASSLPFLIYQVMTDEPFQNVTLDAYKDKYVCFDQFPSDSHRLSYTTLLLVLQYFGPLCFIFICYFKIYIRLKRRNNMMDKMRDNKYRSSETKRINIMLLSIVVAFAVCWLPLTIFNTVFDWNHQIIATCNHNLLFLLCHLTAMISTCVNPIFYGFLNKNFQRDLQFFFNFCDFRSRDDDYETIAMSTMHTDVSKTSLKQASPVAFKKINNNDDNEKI", "experiment": "Radioligand binding, human neuropeptide Y NPY-Y1 membranes, FlashPlate, [125I]-PYY", "method_in_brief": "as §1"}, "[4]": {"molecular_target": "T4, Human opioid (ORL1) (Homo sapiens, UniProt P41146)", "T4 construct": "purchased Perkin Elmer Biosignal", "T4 sequence (P41146 whole entry)": "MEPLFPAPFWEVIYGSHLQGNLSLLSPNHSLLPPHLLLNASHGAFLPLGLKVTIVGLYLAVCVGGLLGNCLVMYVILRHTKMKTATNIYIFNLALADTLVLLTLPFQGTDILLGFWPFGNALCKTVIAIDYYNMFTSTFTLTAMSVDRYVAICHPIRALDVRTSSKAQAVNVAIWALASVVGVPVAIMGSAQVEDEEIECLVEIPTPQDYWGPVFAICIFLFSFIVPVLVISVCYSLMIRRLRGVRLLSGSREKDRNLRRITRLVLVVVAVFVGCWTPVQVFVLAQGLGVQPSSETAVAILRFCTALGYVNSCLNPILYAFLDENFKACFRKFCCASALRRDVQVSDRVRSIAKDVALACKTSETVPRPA", "experiment": "Radioligand binding, human opioid ORL1 membranes, FlashPlate, [125I]-Nociceptin", "method_in_brief": "as §1"}, "[5]": {"molecular_target": "T5, Human δ-opioid (DOP) (Homo sapiens, UniProt P41143)", "T5 construct": "purchased Perkin Elmer Biosignal", "T5 sequence (P41143 whole entry)": "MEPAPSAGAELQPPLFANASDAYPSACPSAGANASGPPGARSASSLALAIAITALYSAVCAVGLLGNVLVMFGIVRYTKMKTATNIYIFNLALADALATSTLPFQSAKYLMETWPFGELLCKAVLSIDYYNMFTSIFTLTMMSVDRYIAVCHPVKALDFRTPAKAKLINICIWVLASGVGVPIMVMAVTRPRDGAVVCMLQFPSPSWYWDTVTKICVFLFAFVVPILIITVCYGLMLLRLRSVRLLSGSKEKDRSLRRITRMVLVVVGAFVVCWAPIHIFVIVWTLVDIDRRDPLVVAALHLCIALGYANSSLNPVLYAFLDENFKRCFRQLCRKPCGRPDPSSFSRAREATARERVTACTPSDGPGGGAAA", "experiment": "Radioligand binding, human δ-opioid (DOP) membranes, FlashPlate, [3H]-Bremazocine", "method_in_brief": "as §1"}, "[6]": {"molecular_target": "T6, Human κ-Opioid (KOP) (Homo sapiens, UniProt P41145)", "T6 construct": "purchased Perkin Elmer Biosignal", "T6 sequence (P41145 whole entry)": "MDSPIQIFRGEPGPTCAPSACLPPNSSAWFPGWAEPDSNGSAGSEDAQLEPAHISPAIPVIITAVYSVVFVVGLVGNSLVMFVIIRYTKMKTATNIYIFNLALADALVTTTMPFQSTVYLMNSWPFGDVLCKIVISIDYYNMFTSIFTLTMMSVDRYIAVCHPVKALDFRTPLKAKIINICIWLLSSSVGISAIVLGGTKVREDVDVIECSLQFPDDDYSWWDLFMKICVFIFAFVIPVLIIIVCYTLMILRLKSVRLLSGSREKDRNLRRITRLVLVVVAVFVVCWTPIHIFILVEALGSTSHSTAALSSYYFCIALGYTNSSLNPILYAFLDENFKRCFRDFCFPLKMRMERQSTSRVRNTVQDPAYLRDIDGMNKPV", "experiment": "Radioligand binding, human κ-opioid (KOP) membranes, filtration, [3H]-Diprenorphine", "method_in_brief": "(§2)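 Percent inhibition of radioligand binding measured on recombinant human membranes: NK1 with [125I]-Substance P, KOP with [3H]-Diprenorphine. Incubation 1 h at room temperature, then harvest onto 0.3% PEI-soaked filters, cold Tris-HCl pH 7.4 washes and scintillation counting; non-specific binding from reference ligand wells.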"}, "[7]": {"molecular_target": "T7, Human neurokinin (NK1) (Homo sapiens, UniProt P25103)", "T7 construct": "purchased Perkin Elmer Biosignal", "T7 sequence (P25103 whole entry)": "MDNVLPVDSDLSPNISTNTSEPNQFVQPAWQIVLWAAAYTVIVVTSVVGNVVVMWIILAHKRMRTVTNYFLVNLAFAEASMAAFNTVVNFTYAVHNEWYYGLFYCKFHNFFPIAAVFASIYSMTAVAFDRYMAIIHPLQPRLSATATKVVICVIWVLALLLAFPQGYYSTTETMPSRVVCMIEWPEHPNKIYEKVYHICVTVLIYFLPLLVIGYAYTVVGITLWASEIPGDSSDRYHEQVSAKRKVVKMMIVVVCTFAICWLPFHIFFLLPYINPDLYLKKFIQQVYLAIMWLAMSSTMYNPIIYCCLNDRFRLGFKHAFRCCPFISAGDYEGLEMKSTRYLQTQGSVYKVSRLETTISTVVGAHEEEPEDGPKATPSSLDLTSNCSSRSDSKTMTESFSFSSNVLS", "experiment": "Radioligand binding, human neurokinin NK1 membranes, filtration, [125I]-Substance P", "method_in_brief": "as §2"}, "[8]": {"molecular_target": "T8, Human Melanocortin (MC3) (Homo sapiens, UniProt P41968)", "T8 construct": "purchased Perkin Elmer Biosignal", "T8 sequence (P41968 whole entry)": "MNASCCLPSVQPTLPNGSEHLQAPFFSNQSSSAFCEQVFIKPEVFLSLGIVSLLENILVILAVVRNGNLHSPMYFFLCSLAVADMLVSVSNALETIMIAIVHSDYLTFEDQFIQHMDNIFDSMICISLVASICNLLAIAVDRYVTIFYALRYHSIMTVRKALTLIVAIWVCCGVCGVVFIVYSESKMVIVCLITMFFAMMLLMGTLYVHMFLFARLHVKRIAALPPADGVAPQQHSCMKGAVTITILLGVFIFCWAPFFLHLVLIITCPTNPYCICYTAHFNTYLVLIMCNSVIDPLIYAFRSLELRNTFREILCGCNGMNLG", "experiment": "Radioligand binding, human melanocortin MC3 membranes, FlashPlate, [125I]-NDP-αMSH", "method_in_brief": "as §1"}, "[9]": {"molecular_target": "T9, Human μ-opioid (MOP) (Homo sapiens, UniProt P35372)", "T9 construct": "purchased Perkin Elmer Biosignal", "T9 sequence (P35372 whole entry)": "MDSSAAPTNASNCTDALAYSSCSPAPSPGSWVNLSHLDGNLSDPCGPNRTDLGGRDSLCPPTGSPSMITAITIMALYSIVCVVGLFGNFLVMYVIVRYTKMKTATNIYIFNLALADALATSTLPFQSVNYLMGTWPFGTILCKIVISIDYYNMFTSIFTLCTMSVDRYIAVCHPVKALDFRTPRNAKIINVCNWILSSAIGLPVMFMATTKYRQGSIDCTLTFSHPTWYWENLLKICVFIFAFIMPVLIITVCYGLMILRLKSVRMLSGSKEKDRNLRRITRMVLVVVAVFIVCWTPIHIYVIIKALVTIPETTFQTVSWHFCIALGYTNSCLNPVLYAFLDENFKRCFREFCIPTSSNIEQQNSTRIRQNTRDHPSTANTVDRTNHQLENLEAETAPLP", "experiment": "Radioligand binding, human μ-opioid (MOP) membranes, FlashPlate, [3H]-Naloxone", "method_in_brief": "as §1"}, "[10]": {"molecular_target": "T10, Mouse urotensin (mUR2) (Mus musculus, UniProt Q8VIH9)", "T10 construct": "purchased Perkin Elmer Biosignal", "T10 sequence (Q8VIH9 1-385)": "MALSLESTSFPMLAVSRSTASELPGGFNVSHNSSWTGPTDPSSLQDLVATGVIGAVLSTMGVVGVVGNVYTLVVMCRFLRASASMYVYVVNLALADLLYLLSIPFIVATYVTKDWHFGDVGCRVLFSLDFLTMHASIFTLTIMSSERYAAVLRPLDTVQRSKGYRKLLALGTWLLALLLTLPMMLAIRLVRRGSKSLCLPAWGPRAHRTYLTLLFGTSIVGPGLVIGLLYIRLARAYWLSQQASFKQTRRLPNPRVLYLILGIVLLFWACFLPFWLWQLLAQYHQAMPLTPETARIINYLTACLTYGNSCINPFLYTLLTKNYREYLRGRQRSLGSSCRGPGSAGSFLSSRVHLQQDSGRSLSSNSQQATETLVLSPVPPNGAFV", "experiment": "Radioligand binding, mouse urotensin mUR2 membranes, FlashPlate, [125I]-Urotensin II", "method_in_brief": "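Cloned mouse urotensin (mUR2) receptor membranes from Perkin Elmer Biosignal were immobilized in FlashPlate microplates using a proprietary coating. Each well got 19.5 μl buffer, then 0.5 μl of DMSO, reference ligand, or compound. Adding 5 μl of [125I]-Urotensin II, diluted to 5× final concentration in binding buffer, started binding. Plates were sealed with TopSeal-A and incubated 1 hour at room temperature in the dark. Wells were counted for 30 seconds each on a TopCount after a 60-second delay, and percentage inhibition was calculated.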"}, "[11]": {"molecular_target": "T11, Human melanocortin (MC5) (Homo sapiens, UniProt P33032)", "T11 construct": "purchased Perkin Elmer Biosignal", "T11 sequence (P33032 whole entry)": "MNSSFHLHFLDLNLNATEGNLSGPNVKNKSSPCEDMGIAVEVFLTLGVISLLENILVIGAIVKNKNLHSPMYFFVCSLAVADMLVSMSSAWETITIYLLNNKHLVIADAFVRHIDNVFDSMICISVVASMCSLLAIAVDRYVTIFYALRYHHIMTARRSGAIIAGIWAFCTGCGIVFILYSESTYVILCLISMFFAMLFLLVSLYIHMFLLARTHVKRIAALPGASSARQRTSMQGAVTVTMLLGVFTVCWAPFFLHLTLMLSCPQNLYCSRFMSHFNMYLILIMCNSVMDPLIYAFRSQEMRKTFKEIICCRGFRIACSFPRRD", "experiment": "Radioligand binding, human melanocortin MC5 membranes, FlashPlate, [125I]-NDP-αMSH", "method_in_brief": "as §1"}}, "data": [{"smiles": "COC[C@H]1OC(OCc2ccc(-c3ccccc3)cc2)[C@H](NC(=O)CCNC(=N)N)[C@@H](OCc2ccccc2)[C@@H]1O", "note": "(stereo partly drawn) [compound 7]", "values": [{"measurement": "A4 radioligand binding inhibition", "setting": "[1]; human melanocortin MC4 membranes", "result": "− (“−” indicates less than 50% inhibition at 10 μM)"}, {"measurement": "A6 radioligand binding inhibition", "setting": "[2]; human MCH1 membranes", "result": "+ (“+” indicates greater than 50% inhibition at 10 μM)"}, {"measurement": "A9 radioligand binding inhibition", "setting": "[3]; human NPY-Y1 membranes", "result": "− (“−” indicates less than 50% inhibition at 10 μM)"}, {"measurement": "A10 radioligand binding inhibition", "setting": "[4]; human ORL1 membranes", "result": "− (“−” indicates less than 50% inhibition at 10 μM)"}, {"measurement": "A1 radioligand binding inhibition", "setting": "[5]; human δ-opioid (DOP) membranes", "result": "− (“−” indicates less than 50% inhibition at 10 μM)"}, {"measurement": "A2 radioligand binding inhibition", "setting": "[6]; human κ-opioid (KOP) membranes", "result": "− (“−” indicates less than 50% inhibition at 10 μM)"}, {"measurement": "A8 radioligand binding inhibition", "setting": "[7]; human neurokinin NK1 membranes", "result": "+ (“+” indicates greater than 50% inhibition at 10 μM)"}, {"measurement": "A3 radioligand binding inhibition", "setting": "[8]; human melanocortin MC3 membranes", "result": "− (“−” indicates less than 50% inhibition at 10 μM)"}, {"measurement": "A7 radioligand binding inhibition", "setting": "[9]; human μ-opioid (MOP) membranes", "result": "+ (“+” indicates greater than 50% inhibition at 10 μM)"}, {"measurement": "A11 radioligand binding inhibition", "setting": "[10]; mouse urotensin mUR2 membranes", "result": "− (“−” indicates less than 50% inhibition at 10 μM)"}, {"measurement": "A5 radioligand binding inhibition", "setting": "[11]; human melanocortin MC5 membranes", "result": "− (“−” indicates less than 50% inhibition at 10 μM)"}]}, {"smiles": "COCC1OC(OCc2ccc(Cl)cc2)C(NC(=O)CCNC(=N)N)C(OCc2ccc(Cl)cc2)C1O", "note": "(stereo not drawn) [compound 202]", "values": [{"measurement": "A4: inhibition of radioligand binding", "setting": "[1]; [125I]-NDP-αMSH, FlashPlate", "result": "+ (“+” indicates greater than 50% inhibition at 10 μM)"}, {"measurement": "A6: inhibition of radioligand binding", "setting": "[2]; [125I]-S36057, FlashPlate", "result": "+ (“+” indicates greater than 50% inhibition at 10 μM)"}, {"measurement": "A9: inhibition of radioligand binding", "setting": "[3]; [125I]-PYY, FlashPlate", "result": "− (“−” indicates less than 50% inhibition at 10 μM)"}, {"measurement": "A10: inhibition of radioligand binding", "setting": "[4]; [125I]-Nociceptin, FlashPlate", "result": "− (“−” indicates less than 50% inhibition at 10 μM)"}, {"measurement": "A1: inhibition of radioligand binding", "setting": "[5]; [3H]-Bremazocine, FlashPlate", "result": "− (“−” indicates less than 50% inhibition at 10 μM)"}, {"measurement": "A2: inhibition of radioligand binding", "setting": "[6]; [3H]-Diprenorphine, filtration", "result": "− (“−” indicates less than 50% inhibition at 10 μM)"}, {"measurement": "A8: inhibition of radioligand binding", "setting": "[7]; [125I]-Substance P, filtration", "result": "+ (“+” indicates greater than 50% inhibition at 10 μM)"}, {"measurement": "A3: inhibition of radioligand binding", "setting": "[8]; [125I]-NDP-αMSH, FlashPlate", "result": "+ (“+” indicates greater than 50% inhibition at 10 μM)"}, {"measurement": "A7: inhibition of radioligand binding", "setting": "[9]; [3H]-Naloxone, FlashPlate", "result": "− (“−” indicates less than 50% inhibition at 10 μM)"}, {"measurement": "A11: inhibition of radioligand binding", "setting": "[10]; [125I]-Urotensin II, FlashPlate", "result": "− (“−” indicates less than 50% inhibition at 10 μM)"}, {"measurement": "A5: inhibition of radioligand binding", "setting": "[11]; [125I]-NDP-αMSH, FlashPlate", "result": "+ (“+” indicates greater than 50% inhibition at 10 μM)"}]}, {"smiles": "CO[C@H]1[C@H](O)[C@@H](COCc2ccc(-c3ccccc3)cc2)OC(OCCc2ccccc2)[C@@H]1NC(=O)CNC(=N)N", "note": "(stereo partly drawn) [compound 109]", "values": [{"measurement": "A4 radioligand binding, percentage inhibition", "setting": "[1]; [125I]-NDP-αMSH", "result": "+ (“+” indicates greater than 50% inhibition at 10 μM)"}, {"measurement": "A6 radioligand binding, percentage inhibition", "setting": "[2]; [125I]-S36057", "result": "− (“−” indicates less than 50% inhibition at 10 μM)"}, {"measurement": "A9 radioligand binding, percentage inhibition", "setting": "[3]; [125I]-PYY", "result": "− (“−” indicates less than 50% inhibition at 10 μM)"}, {"measurement": "A10 radioligand binding, percentage inhibition", "setting": "[4]; [125I]-Nociceptin", "result": "− (“−” indicates less than 50% inhibition at 10 μM)"}, {"measurement": "A1 radioligand binding, percentage inhibition", "setting": "[5]; [3H]-Bremazocine", "result": "− (“−” indicates less than 50% inhibition at 10 μM)"}, {"measurement": "A2 radioligand binding, percentage inhibition", "setting": "[6]; [3H]-Diprenorphine", "result": "− (“−” indicates less than 50% inhibition at 10 μM)"}, {"measurement": "A8 radioligand binding, percentage inhibition", "setting": "[7]; [125I]-Substance P", "result": "− (“−” indicates less than 50% inhibition at 10 μM)"}, {"measurement": "A3 radioligand binding, percentage inhibition", "setting": "[8]; [125I]-NDP-αMSH", "result": "+ (“+” indicates greater than 50% inhibition at 10 μM)"}, {"measurement": "A7 radioligand binding, percentage inhibition", "setting": "[9]; [3H]-Naloxone", "result": "− (“−” indicates less than 50% inhibition at 10 μM)"}, {"measurement": "A11 radioligand binding, percentage inhibition", "setting": "[10]; [125I]-Urotensin II", "result": "− (“−” indicates less than 50% inhibition at 10 μM)"}, {"measurement": "A5 radioligand binding, percentage inhibition", "setting": "[11]; [125I]-NDP-αMSH", "result": "+ (“+” indicates greater than 50% inhibition at 10 μM)"}]}]}
